The pIC50 is −log10 of the IC50, conventionally taken in molar units. Read a high pIC50 as a low IC50.

For this test, the target named is Replicase polyprotein 1a (Severe acute respiratory syndrome-related coronavirus, UniProt P0C6U8). In words: Inhibition of SARS coronavirus chymotrypsin-like protease by fluorescence plate reader.

pIC50: −log10 of the molar value.

As for `N#Cc1c(-c2ccccc2)nc(SCCc2ccccc2)[nH]c1=O`, the pIC50 is below 4.30.

Consider `N#Cc1c(-c2ccc(Cl)cc2)nc(SCc2ccc([N+](=O)[O-])cc2)[nH]c1=O`, for which the pIC50 is 5.21. The value for `N#Cc1c(-c2ccccc2)nc(SCc2ccc([N+](=O)[O-])cc2)[nH]c1=O` was 4.45; that for `COc1ccc(-c2nc(SCc3ccccc3)[nH]c(=O)c2C#N)cc1` was below 4.30.

Take `N#Cc1c(-c2cccc(Cl)c2)nc(SCc2ccccc2)[nH]c1=O`: the pIC50 is below 4.30.

Consider `Cc1ccc(-c2nc(SCc3ccccc3)[nH]c(=O)c2C#N)cc1`, for which the pIC50 is below 4.30. Then `N#Cc1c(-c2ccc(Cl)cc2)nc(SCCc2ccccc2)[nH]c1=O`, with 4.77; and `N#Cc1c(-c2ccccc2)nc(SCc2ccccc2)[nH]c1=O`, with below 4.30; and `COc1ccc(-c2nc(SCCc3ccccc3)[nH]c(=O)c2C#N)cc1`, with 4.69. The value for `N#Cc1c(-c2cccc([N+](=O)[O-])c2)nc(SCc2ccc([N+](=O)[O-])cc2)[nH]c1=O` was 4.97. The value for `COc1ccc(-c2nc(SCc3ccc([N+](=O)[O-])cc3)[nH]c(=O)c2C#N)cc1` was 4.58. As for `Cc1ccc(-c2nc(SCCc3ccccc3)[nH]c(=O)c2C#N)cc1`, the pIC50 was below 4.30.

`Cc1ccc(-c2nc(SCc3ccc([N+](=O)[O-])cc3)[nH]c(=O)c2C#N)cc1` gave a negative logarithm of the IC50 (pIC50) below 4.30. The value for `N#Cc1c(-c2cccc([N+](=O)[O-])c2)nc(SCCc2ccccc2)[nH]c1=O` was below 4.30.

(Values after ChEMBL document CHEMBL1158630, “Synthesis, docking studies, and evaluation of pyrimidines as inhibitors of SARS-CoV 3CL protease” (Bioorg Med Chem Lett, 2010).)
